Results on 1 molecule are retold here after patent US7314959B2, “Amino thiol compounds and compositions for use in conjunction with cancer therapy” (Wisconsin Alumni Research Foundation, priority 2003, dated 2008).

Entries after “also recorded” stand apart in the source; their conditions may differ.

Experiment [1] deals with primary, human skin fibroblasts. As to the kind of experiment: Cell cycle block in human skin fibroblasts (flow cytometry). It counts as cell-based. The procedure: (§1) Methods (Cell cycle and p21 western): The cell culture experiments were done using primary, human skin fibroblasts, one strain of which (BJ cells) was obtained from ATCC (American Type Culture Collection). […] For flow cytometry and p21 experiments, cells were plated at 0.5×10^6 cells/150 mm plate, and 24 hr later, drug molecules (4100 μM PrC-210, 600 μM cysteamine, 205 μM cysteamine analog, 0.4 μg/ml colcemid) were added to medium. […] (Cancer Research. 61(21):7754-62, 2001). As per the cited reference, cells were fixed, treated with RNAse, and stained with propidium iodide for flow cytometry, or cells were extracted, proteins electrophoresed, and probed with anti-p21 antibody (#SXM-30) for western blot analysis.
For orientation: Flow cytometry measures light scatter and fluorescence of single cells or particles in a stream.

Experiment [2] has as its system A431 human epidermoid cells (xenograft in nude mice). As to the kind of experiment: Effect of topical drug on killing of tumor xenograft by external beam γ irradiation. To be noted: topical dose 5-times higher than standard regimen, adjacent to xenograft; 6.2 Gy. It is filed as in vivo, mouse. The method, then:
Briefly, athymic nude mice (nu/nu, 6-7 weeks, Harlan Labs) were housed in cages containing autoclaved bedding and received autoclaved food and water. Cages were maintained in a sterile laminar flow hood. Mice received a single, sc injection of tumor cells (6.5×10^6, A431; 2.5×10^6, L1210) suspended in 200 ul of serum-free DMEM.
After three days, mice were treated with topical drug in vehicle or vehicle alone. PrC-210 was formulated in a 50:30:20 vehicle (ethanol:PG (propylene glycol):water, adjusted to pH 6.5 with NaOH), and mice received four topical applications over two hours (at −2 hr, −1 hr, −30 min and −10 min, irradiation was at 0 min). 18-20 gm nude mice received topical treatments of 13 ul, 11 ul, 11 ul and 11 ul (total=46 ul) applied to a roughly 1 cm×1.5 cm area on the right flank, which was adjacent to the tumor xenograft. For these tumor xenograft experiments, a 5-fold increase in drug concentration over the minimum effective concentration previously shown to prevent radiodermatitis was tested.
With the last topical drug application, at −10 min, the mice also received an ip injection of Nembutal (65 ug/gm b.w.). […]
Growth of the xenograft tumors was monitored by vernier caliper measurements every 1-2 days for the 18-21 days following irradiation. […]

Experiment [3] has as its system p21 in human fibroblasts. As to the kind of experiment: p21 western blot in human skin fibroblasts. It is filed as cell-based. To be noted: IC70 concentration of PrC-210 (4100 μM); cysteamine 600 μM; 30 hour exposure. The method, then: as §1
(In western blotting, separated proteins are transferred to a membrane and probed.)

Experiment [4] has as its system B16 melanoma tumor xenografts. As to the kind of experiment: Effect of topical drug on killing of tumor xenograft by systemic Cytoxan. It counts as in vivo, mouse. To be noted: topical dose 5-times higher than standard regimen; Cytoxan 200 ug/gm b.w. ip.
Experiment [5] deals with hamster cheek pouch mucosa. As to the kind of experiment: Radiation-induced mucositis, hamster cheek pouch model. It counts as in vivo. To be noted: 50 mM or 500 mM topical for 30 min before 30 Gy (17.5 min) irradiation. The text has this: The model for radiation-induced oral mucositis was developed for the purpose of screening and identifying effective polyamines and aminothiols useful for treatment. The model used in this example was derived from the oral mucositis model described by Alvarez et al. (Clin. Cancer Research 9:3454-3461, 2003). Male golden Syrian hamsters (70-95 gram, Charles River Laboratories, Wilmington, Mass.) were used. Animals were individually numbered, housed in small groups and fed and watered ad libitum. Hamsters were anesthetized with sodium pentobarbital (80 mg/kg body weight, Sigma, St. Louis, Mo.). The left buccal cheek pouch was everted and secured. A protective lead shield covered the remainder of the animal. Subsequently, the cheek pouch was irradiated with a single dose of radiation from 20 to 40 Gy delivered to the targeted mucosa in the ^137Cs irradiator. Starting 10 to 12 days after radiation, the severity of mucositis was assessed every two days. The severity level of mucositis was evaluated using a modified mucositis scoring system described by Sonis S. T. et al. (Oral Oncology 36:373-381, 2000)
The scoring system was as follows: • 0=Pouch completely healthy. No erythema or vasodilatation. • 1=Erythema. • 2=Severe erythema, vasodilatation • 3=Severe erythema/vasodilatation. Superficial erosion on radiated pouch surface area. • 4=Formation of ulcers in one or more places. […]

As for `CNCC(CS)CNC` [PrC-210, 3-methylamino-2-methylaminomethyl-propane-1-thiol], the “time to reversion to normal cell division after wash-out” value in experiment [1] (change of cell culture medium) was ≤ 48 h. In experiment [1] (log-phase human fibroblast cultures), the “cell cycle block (phase)” value was “in the G1 phase of the cell cycle; also recorded: G1-specific cell cycle block; also recorded: reversible G1 cell cycle block”. In addition, the “reversibility of cell cycle block” value in experiment [1] (upon washout or removal of the drug) is “reversible”. In experiment [2], the “effect upon killing of tumor cells by external beam γ irradiation” value is given as “no discernible effect”. In experiment [3], the p21 expression result is reported as “induces expression of the cell cycle regulator, p21; also recorded: marked induction of p21 expression”. The “effect upon killing of tumor xenografts by systemic Cytoxan chemotherapy” value in experiment [4] is listed as “no discernible effect”. The “effect on radiation-induced erythema, swelling and inflexibility of cheek pouch” value in experiment [5] is “significant decrease in the erythema, swelling and inflexibility”.
